From publication PMC6403019, “Nanoformulated Antiretroviral Therapy Attenuates Brain Metabolic Oxidative Stress” (Molecular Neurobiology, 2018)

Columns and labels:
[1] = Plasma concentration after intramuscular injection of free DTG; assay type: in vivo, mice; details: single free DTG injection, 45 mg/kg
brain metabolome = assay: Brain region-specific global metabolomics (LC-MS) after DTG injections; assay type: in vivo, mice (Balb/cJ); details: five brain regions, Fig. 4
Experimental: Brain tissue subregions were extracted as previously described. Briefly, 0.6 mL of cold methanol:H2O (4:1, v/v) were added per 10 mg tissue (solvent volume was adjusted accordingly to tissue weight). Homogenization was performed with glass beads in a homogenizer and sonicated in an ice bath for 10 min. The mixtures were then transferred to 1.5-mL Eppendorf vials and rinsed with additional 200 μL extraction solvent. To precipitate proteins, the samples were incubated for 1 h at − 20 °C, followed by a 15-min centrifugation at 13,000 rpm at 4 °C. The resulting supernatant was evaporated to dryness in a vacuum concentrator. The dry extracts were then reconstituted in acetonitrile:H2O (1:1, v/v), normalized by tissue weight, sonicated for 10 min, and centrifuged for 15 min at 13000 rpm and 4 °C to remove insoluble debris. The supernatants were transferred to HPLC vials and stored at − 80 °C prior to LC-MS analysis.
The extracts were analyzed on a 6550 iFunnel QTOF mass spectrometer coupled with a 1290 UPLC system (Agilent Technologies, Santa Clara, CA). For global metabolomics, a Luna Aminopropyl, 3 μm, 150 mm × 2.0 mm I.D. HILIC column (Phenomenex, Torrance, CA) was used. […]
LC-MS data were converted to mzXML files using Masshunter Acquisition Software (Agilent Masshunter 6.0B). […] The relative quantification of metabolite features was based on extracted ion chromatogram areas. […]

[2] = tested on: mouse embryonic neuron cells; assay: ROS formation (DCFDA) in neurons; assay type: cell-based; details: administered at 100 and 500 μM
Experimental: (§1) ROS were measured in neuron and MDM cells with the probe DCFDA (dichlorofluorescin diacetate, abcam, Cambridge, MA). Cells were seeded on black, clear-bottomed 96-well plates. After cells were pre-cultured with different treatments, the media were removed and the cells were washed with 1× buffer (supplied with the kit). Cells were incubated for 45 min in 1× buffer containing 25 μM DCFDA at 37 °C. DCF production was measured by fluorescence spectroscopy with excitation wavelength at 485 nm and emission wavelength at 535 nm. In this study, the cells were treated with increasing concentrations of free DTG, nano-DTG, and various vehicle, positive, and negative controls to compare ROS generation and lactate dehydrogenase (LDH)-based cytotoxicity generated by such treatments. […] TBHP (tert-butyl hydroperoxide; 10 μM) and PBS were used as the positive and negative controls, respectively. The vehicle control for nanoformulated DTG was composed of poloxamer micelles without the drug. […] Specifically, cells (both MDM and neurons) were treated for 2 h with various vehicle or drug concentrations. Then, cells were washed and new media was added, and after 24-h culture, cells were challenged with TBHP for 2 h, followed by fluorescence-based ROS measurements.

human MDM [3] = assay: ROS formation (DCFDA) in MDM; assay type: cell-based; details: 100 μM
Experimental: as §1

[4] = tested on: mouse embryonic neuron cells; assay: ROS levels after TBHP challenge in neurons; assay type: cell-based; details: 100 μM drug, then 10 μM TBHP; normalized with TBHP-positive control
Experimental: as §1

human MDM [5] = assay: ROS levels after TBHP challenge in MDM; assay type: cell-based; details: 10 to 100 μM drug, then 10 μM TBHP
Experimental: as §1

[6] = tested on: mouse embryonic neuron cells; assay: Cellular uptake of DTG in neurons (LC-MS/MS MRM); assay type: in vitro ADME; details: treated with 100 μM
Text: Cycle time was 150 ms for each transition.

neuron and MDM cells = assay: LDH-based cytotoxicity; assay type: cell-based; details: 500 μM in the dosing medium
[7] = design: method as in PMID 21716073, PMID 23824675; details: HIV-infected adults, ten doses of monotherapy with 50 mg once daily DTG tablets; cited from earlier work

plasma concentration [1]: up to 11.29 μg/mL | ROS fold change vs vehicle control, neurons [2]: up to 1.5 times of control | ROS fold change vs vehicle control, MDM (human MDM [3]): 0.8 times | ROS fold change after TBHP challenge, neurons [4]: 4 | DTG concentration in neurons [6]: 168 ng/10^6 cells
Structure (SMILES): C[C@@H]1CCO[C@H]2Cn3cc(C(=O)NCc4ccc(F)cc4F)c(=O)c(O)c3C(=O)N12 [free DTG, dolutegravir]
changes of oxidative stress metabolites (ascorbic acid, threonate, GSH, GSSG) vs controls (brain metabolome): statistically significant (p value < 0.05) with the exception of ascorbic acid levels observed in the H | ROS response to TBHP challenge, MDM (human MDM [5]): induced ROS formation in a dose-response at higher concentrations (60 to 100 μM) | cytotoxicity (LDH-based) (neuron and MDM cells): did not show significant cytotoxicity | steady-state plasma concentration (Cmax) [7]: 3340 ng/mL
